Test results as given in patent US20250208149A1, “WEE1 COMPOUND FOR TREATING UTERINE SEROUS CARCINOMA” (Recurium IP Holdings, LLC, priority 2022, published 2025).
“Also recorded” adds a separate entry of the source.

How the values were obtained:
Assay type in all cases: cell-based
Hs578T cells = assay: ZN-c3 dose response, percent cell density (cell titer glow), PPP2R1A siRNA vs scrambled control; settings: Homo sapiens, Hs-578T, 72 h
Protocol: (§1) FIG. 5 depicts the percent cell density of Hs578T (a breast cancer cell line) cells after treatment with a 10-point dose response of ZN-c3 for 72 hours, comparing cells transfected with siRNA to PPP2R1A against those transfected with a scrambled control siRNA. Percent cell density is calculated using cell titer glow analysis. PPP2R1A siRNA transfected cells have approximately 2.4-fold increase in sensitivity to ZN-c3 (TABLE 3).
(§2) The effect of PPP2R1A knockdown on influencing cancer cell susceptibility to ZN-c3 was evaluated. Various cancer cell lines were transfected with PPP2R1A siRNA or control scrambled siRNA and the cells were treated with a 10 point dose response of ZN-c3 for 72 hours. Percent cell density was calculated using cell titer glow analysis. The PPP2R1A siRNA targeted the following bases Chr.19: 52189802-52226425. SiRNA transfection was started 48 hours prior to treatment with ZN-c3. […]
(§3) A breast cancer cell line Hs578T was treated with PPP2R1A siRNA or control siRNA and transfected cells were assessed for sensitivity to ZN-c3 by measurement of reduction in percent cell density (FIG. 5). PPP2R1A siRNA mediated knockdown of PPP2R1A was evaluated by comparison of PPP2R1A expression in conditions treated with siCTRL and siPPPR12A (FIG. 6).

[1] = system: OV17R ovarian cancer cells; assay: ZN-c3 dose response, percent cell density (cell titer glow)
Protocol: FIG. 17 depicts the percent cell density of OV17R ovarian cancer cells after treatment with a 10-point dose response of ZN-c3 for 72 hours. OV17R has the S256F hotspot missense mutation in PPP2R1A. […] Percent cell density is calculated using cell titer glow analysis.
Having observed that siRNA mediated knockdown of PPP2R1A sensitized cancer cell lines to treatment with ZN-c3, it was also of interest to evaluate if CRISPR mediated PPP2R1A knockout produced a similar effect. Various cancer cell lines were transfected with a CRISPR guide RNA targeting PPP2R1A or nontargeting guide RNA and the cells were treated with a 10-point dose response of ZN-c3 for 72 hours. The 10-point dose response to ZN-c3 included the same dosages used in Example 1. As in Example 1, no media change was performed during the 72-hour ZN-c3 dose response evaluation period. Fewer than 20 cell passages were completed between the CRISPR mediated knockout and ZN-c3 treatment. CRISPR was performed by targeting PPP2R1A with a PPP2R1A sgRNA sequence. Percent cell density was calculated using cell titer glow analysis.
The ovarian cancer cell line OV17R was assessed for sensitivity to ZN-c3 by measurement of reduction in percent cell density (FIG. 17).

HEC1B cells = assay: ZN-c3 dose response, percent cell density (cell titer glow), PPP2R1A siRNA vs scrambled control; settings: Homo sapiens, HEC-1B, 72 h, HEC1B cells (PPP2R1A W257L; L429F)
Protocol: (§4) FIG. 11 depicts the percent cell density of HEC1B and HEC-59 (endometrial cancer cell lines) cells after treatment with a 10-point dose response of ZN-c3 for 72 hours, comparing cells transfected with siRNA to PPP2R1A against those transfected with a scrambled control siRNA. […] HEC-59 is PPP2R1A wild-type. Percent cell density is calculated using cell titer glow analysis. HEC1B PPP2R1A siRNA transfected cells have approximately 1.4-fold increase in sensitivity to ZN-c3 while HEC-59 PPP2R1A siRNA transfected cells have approximately 2.5 fold increase in sensitivity to ZN-c3 (TABLE 6).
(§5) The effect of PPP2R1A knockdown on influencing cancer cell susceptibility to ZN-c3 was evaluated. Various cancer cell lines were transfected with PPP2R1A siRNA or control scrambled siRNA and the cells were treated with a 10 point dose response of ZN-c3 for 72 hours. Percent cell density was calculated using cell titer glow analysis. The PPP2R1A siRNA targeted the following bases Chr.19: 52189802-52226425. SiRNA transfection was started 48 hours prior to treatment with ZN-c3. The ZN-c3 dose response evaluation included ZN-c3 dosages at […].
(§6) Endometrial cancer cell lines HEC1B and HEC-59 were treated with PPP2R1A siRNA or control siRNA and transfected cells were assessed for sensitivity to ZN-c3 by measurement of reduction in percent cell density (FIG. 11). PPP2R1A siRNA mediated knockdown of PPP2R1A was evaluated by comparison of PPP2R1A protein expression via western blot in conditions treated with siCTRL and siPPPR12A with vinculin used as a control (FIG. 12). Knockdown of PPP2R1A by siRNA was limited in HEC1B cells, due to the missense mutations W257L and L429F within PPP2R1A in this cell line.

HEC-59 cells = assay: as above; settings: 72 h, HEC-59 cells (PPP2R1A wild-type)
Protocol: as §4, §5, §6

A427 cells = assay: as above; settings: Homo sapiens, A-427, 72 h
Protocol: as §1, with “1” for “5”, “A427” for “Hs578T”, “first non-small cell lung” for “breast”, “3.5-fold” for “2.4-fold”, “1).” for “3).”
as §2
as §3, with “first non-small cell lung” for “breast”, “A427” for “Hs578T”, “1).” for “5).”, “2).” for “6).”

SKOV3 cells = assay: as above; settings: Homo sapiens, SK-OV-3, 72 h
Protocol: as §1, with “9” for “5”, “SKOV3 (an ovarian” for “Hs578T (a breast”, “2.7-fold” for “2.4-fold”, “5).” for “3).”
as §5
as §3, with “An ovarian” for “A breast cancer”, “SKOV3” for “Hs578T”, “9).” for “5).”, “10).” for “6).”

C=CCn1c(=O)c2cnc(Nc3ccc(N4CCN(C)CC4)cc3)nc2n1-c1ccc2c(n1)[C@@](O)(CC)CC2 [ZN-c3, (R)-2-allyl-1-(7-ethyl-7-hydroxy-6,7-dihydro-5H-cyclopenta[b]pyridin-2-yl)-6-((4-(4-methylpiperazin-1-yl)phenyl)amino)-1,2-dihydro-3H-pyrazolo[3,4-d]pyrimidin-3-one]
EC50 (Hs578T cells; siCTRL): 170 nM | EC50 (Hs578T cells; siPPP2R1A): 71.3 nM | sensitivity of cell line to ZN-c3 treatment ([1]; OV17R cells (PPP2R1A S256F hotspot missense mutation)): highly susceptible; also recorded: highly sensitive | EC50 ([1]; OV17R cells (PPP2R1A S256F), 72 hours): 139 nM | EC50 (HEC1B cells; siCTRL): 707 nM | EC50 (HEC1B cells; siPPP2R1A): 490 nM | EC50 (HEC-59 cells; siCTRL): 1040 nM | EC50 (HEC-59 cells; siPPP2R1A): 436 nM | EC50 (A427 cells; siCTRL): 196 nM | EC50 (A427 cells; siPPP2R1A): 55.4 nM | EC50 (SKOV3 cells; siCTRL): 480 nM | EC50 (SKOV3 cells; siPPP2R1A): 180 nM
